Experimental data published in patent US20160271263A1 (Novo Nordisk A/S, priority 2010, published 2016).
Numbered stars: 1 amine (or outer) side, 2 acyl side, 3 side chain; on linkers, the order of the positions; unused ones are H or OH. Side chains are listed from the residue outwards. Peptide text beside a SMILES is read from it. * marks the point of attachment. C18 diacid = O=C(O)CCCCCCCCCCCCCCCCC(=O)*; γGlu = O=C(O)[C@H](CCC(=O)[*:2])N[*:1]; AEEA = NCCOCCOCC(=O)O

Biological target: glucagon receptor (Homo sapiens, UniProt P47871)
Experiment: cell-based

glucagon receptor, sequence (P47871 26-477): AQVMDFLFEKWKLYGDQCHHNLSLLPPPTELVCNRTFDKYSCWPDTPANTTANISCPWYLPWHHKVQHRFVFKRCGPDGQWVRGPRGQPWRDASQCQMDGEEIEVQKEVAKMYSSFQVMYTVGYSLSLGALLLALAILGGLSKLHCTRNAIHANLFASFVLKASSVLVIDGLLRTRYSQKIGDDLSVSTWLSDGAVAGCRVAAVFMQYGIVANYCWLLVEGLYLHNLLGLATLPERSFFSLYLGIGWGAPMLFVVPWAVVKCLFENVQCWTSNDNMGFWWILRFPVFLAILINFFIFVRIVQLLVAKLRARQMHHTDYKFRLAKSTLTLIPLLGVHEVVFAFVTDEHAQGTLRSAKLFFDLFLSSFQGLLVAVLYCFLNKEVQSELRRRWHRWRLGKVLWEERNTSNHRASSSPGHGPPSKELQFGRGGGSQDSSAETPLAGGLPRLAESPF

EC50 [nM]	SMILES
0.54	CSCC[C@H](NC(=O)[C@H](CC(C)C)NC(=O)[C@H](Cc1c[nH]c2ccccc12)NC(=O)[C@H](CCC(N)=O)NC(=O)[C@@H](NC(=O)[C@H](Cc1ccccc1)NC(=O)[C@H](CC(=O)O)NC(=O)[C@H](CCCCNC(=O)COCCOCCNC(=O)CC[C@H](NC(=O)CCCCCCCCCCCCCCCCC(=O)O)C(=O)O)NC(=O)[C@H](C)NC(=O)[C@H](CCCNC(=N)N)NC(=O)[C@H](CCCNC(=N)N)NC(=O)[C@H](CO)NC(=O)[C@H](CC(=O)O)NC(=O)[C@H](CC(C)C)NC(=O)[C@H](Cc1ccc(O)cc1)NC(=O)[C@H](CCCCN)NC(=O)[C@H](CO)NC(=O)[C@H](Cc1ccc(O)cc1)NC(=O)[C@H](CC(=O)O)NC(=O)[C@H](CO)NC(=O)[C@@H](NC(=O)[C@H](Cc1ccccc1)NC(=O)[C@@H](NC(=O)CNC(=O)[C@H](CCC(N)=O)NC(=O)[C@@H](CO)NC(=O)[C@@H](N)Cc1c[nH]cn1)[C@@H](C)O)[C@@H](C)O)C(C)C)C(=O)N[C@@H](CC(N)=O)C(=O)N[C@H](C(=O)N[C@@H](CCCCN)C(N)=O)[C@@H](C)O [Example 23, N^α-(N^ε24 [2-[2-[2-[[(4S)-5-hydroxy-4-[(18-hydroxy-18-oxo-octadecanoyl)amino]-5-oxo-pentanoyl]amino]ethoxy]ethoxy]acetyl] [D-Ser^e, Lys^20] Glucagonyl) Lysinyl amide]
0.003	CC(C)C[C@H](NC(=O)[C@H](CC(C)C)NC(=O)[C@H](Cc1c[nH]c2ccccc12)NC(=O)[C@H](CCC(N)=O)NC(=O)[C@@H](NC(=O)[C@H](Cc1ccccc1)NC(=O)[C@H](CCC(=O)O)NC(=O)[C@H](CCC(N)=O)NC(=O)[C@H](C)NC(=O)[C@H](CCCNC(=N)N)NC(=O)[C@H](CCCCN)NC(=O)[C@H](CO)NC(=O)[C@H](CC(=O)O)NC(=O)[C@H](CC(C)C)NC(=O)[C@H](Cc1ccc(O)cc1)NC(=O)[C@H](CCCCN)NC(=O)[C@H](CO)NC(=O)[C@H](Cc1ccc(O)cc1)NC(=O)[C@H](CC(=O)O)NC(=O)[C@H](CO)NC(=O)[C@@H](NC(=O)[C@H](Cc1ccccc1)NC(=O)[C@@H](NC(=O)CNC(=O)[C@H](CCC(N)=O)NC(=O)[C@H](CO)NC(=O)[C@@H](N)Cc1c[nH]cn1)[C@@H](C)O)[C@@H](C)O)C(C)C)C(=O)N[C@@H](CC(N)=O)C(=O)N[C@@H](CCCCNC(=O)COCCOCCNC(=O)COCCOCCNC(=O)CC[C@H](NC(=O)CCCCCCCCCCCCCCCCC(=O)O)C(=O)O)C(N)=O [Example 46, N^ε29 ([2-[2-[2-[[2-[2-[2-[[(4S)-5-hydroxy-4-[(18-hydroxy-18-oxooctadecanoyl)amino]-5-oxopentanoyl]amino]ethoxy]ethoxy]acetyl]amino]ethoxy]ethoxy]acetyl]) [Lys^17, Glu^21, Leu^27, Lys^29] Glucagon peptide amide] (H-HSQGTFTSDYSKYLDSKRAQEFVQWLLNK([AEEA-AEEA-γGlu-C18 diacid])-NH2; N-terminus assumed)
